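Cells were grown in 96-well plates and exposed to each compound for 48 hours at five concentrations; endpoints were interpolated linearly between bracketing concentrations, or set to the highest concentration if not reached. At the GI50, growth is halved. The concentration for full growth arrest is given as TGI.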
Legend:
Experiment in all cases: NCI anticancer screen, dose series, 48 h
RXF 393 renal = test system: RXF 393 renal
NCI-H23 lung = test system: NCI-H23 lung
M19-MEL melanoma = test system: M19-MEL melanoma
NCI-H522 lung = test system: NCI-H522 lung
SNB-78 CNS = test system: SNB-78 CNS
OVCAR-5 ovarian = test system: OVCAR-5 ovarian
SK-OV-3 ovarian = test system: SK-OV-3 ovarian
UO-31 renal = test system: UO-31 renal
SK-MEL-28 melanoma = test system: SK-MEL-28 melanoma
SF-268 CNS = test system: SF-268 CNS
SF-539 CNS = test system: SF-539 CNS
DMS 273 small cell lung = test system: DMS 273 small cell lung
NCI-H460 lung = test system: NCI-H460 lung
A498 renal = test system: A498 renal
OVCAR-8 ovarian = test system: OVCAR-8 ovarian
SR leukemia = test system: SR leukemia
MOLT-4 leukemia = test system: MOLT-4 leukemia
ACHN renal = test system: ACHN renal
UACC-62 melanoma = test system: UACC-62 melanoma
KM20L2 colon = test system: KM20L2 colon
OVCAR-3 ovarian = test system: OVCAR-3 ovarian
SF-295 CNS = test system: SF-295 CNS
COLO 205 colon = test system: COLO 205 colon
K-562 leukemia = test system: K-562 leukemia
TK-10 renal = test system: TK-10 renal
A549 NSCLC = test system: A549 NSCLC
SK-MEL-2 melanoma = test system: SK-MEL-2 melanoma
SNB-75 CNS = test system: SNB-75 CNS
SK-MEL-5 melanoma = test system: SK-MEL-5 melanoma
IGROV1 ovarian = test system: IGROV1 ovarian
OVCAR-4 ovarian = test system: OVCAR-4 ovarian
HOP-18 NSCLC = test system: HOP-18 NSCLC
CCRF-CEM leukemia = test system: CCRF-CEM leukemia
SNB-19 CNS = test system: SNB-19 CNS
HCT-15 colon = test system: HCT-15 colon
KM12 colon = test system: KM12 colon
DMS 114 small cell lung = test system: DMS 114 small cell lung
786-0 renal = test system: 786-0 renal
LXFL 529 NSCLC = test system: LXFL 529 NSCLC
HCC-2998 colon = test system: HCC-2998 colon
XF 498 CNS = test system: XF 498 CNS
LOX IMVI melanoma = test system: LOX IMVI melanoma
HOP-92 NSCLC = test system: HOP-92 NSCLC
EKVX NSCLC = test system: EKVX NSCLC
U251 CNS = test system: U251 CNS
UACC-257 melanoma = test system: UACC-257 melanoma
DLD-1 colon = test system: DLD-1 colon
MALME-3M melanoma = test system: MALME-3M melanoma
SW-620 colon = test system: SW-620 colon
HCT-116 colon = test system: HCT-116 colon
HT29 colon = test system: HT29 colon
NCI-H226 lung = test system: NCI-H226 lung
SN12C renal = test system: SN12C renal
M14 melanoma = test system: M14 melanoma
HOP-62 NSCLC = test system: HOP-62 NSCLC
RPMI-8226 leukemia = test system: RPMI-8226 leukemia
HL-60(TB) leukemia = test system: HL-60(TB) leukemia

CCC[CH2][Sn]([CH2]CCC)([O]C(=O)Cc1ccc(F)cc1)[O]C(=O)Cc1ccc(F)cc1
GI50 (RXF 393 renal): 145 nM | TGI (RXF 393 renal): 695 nM | GI50 (NCI-H23 lung): 176 nM | TGI (NCI-H23 lung): 1140 nM | GI50 (M19-MEL melanoma): 295 nM | TGI (M19-MEL melanoma): 1650 nM | GI50 (NCI-H522 lung): 23.2 nM | TGI (NCI-H522 lung): 149 nM | GI50 (SNB-78 CNS): 284 nM | TGI (SNB-78 CNS): 1570 nM | GI50 (OVCAR-5 ovarian): 1790 nM | TGI (OVCAR-5 ovarian): 3180 nM | GI50 (SK-OV-3 ovarian): 2930 nM | TGI (SK-OV-3 ovarian): 7330 nM | GI50 (UO-31 renal): 1430 nM | TGI (UO-31 renal): 2750 nM | GI50 (SK-MEL-28 melanoma): 396 nM | TGI (SK-MEL-28 melanoma): 1680 nM | GI50 (SF-268 CNS): 450 nM | TGI (SF-268 CNS): 1750 nM | GI50 (SF-539 CNS): 1060 nM | TGI (SF-539 CNS): 2280 nM | GI50 (DMS 273 small cell lung): 1040 nM | TGI (DMS 273 small cell lung): 2220 nM | GI50 (NCI-H460 lung): 2270 nM | TGI (NCI-H460 lung): 5850 nM | GI50 (A498 renal): 573 nM | TGI (A498 renal): 1860 nM | GI50 (OVCAR-8 ovarian): 917 nM | TGI (OVCAR-8 ovarian): 2130 nM | GI50 (SR leukemia): 196 nM | TGI (SR leukemia): 1860 nM | GI50 (MOLT-4 leukemia): 124 nM | TGI (MOLT-4 leukemia): 796 nM | GI50 (ACHN renal): 756 nM | TGI (ACHN renal): 2010 nM | GI50 (UACC-62 melanoma): 629 nM | TGI (UACC-62 melanoma): 1890 nM | GI50 (KM20L2 colon): 1880 nM | TGI (KM20L2 colon): 4690 nM | GI50 (OVCAR-3 ovarian): 1270 nM | TGI (OVCAR-3 ovarian): 2540 nM | GI50 (SF-295 CNS): 1130 nM | TGI (SF-295 CNS): 2340 nM | GI50 (COLO 205 colon): 679 nM | TGI (COLO 205 colon): 2000 nM | GI50 (K-562 leukemia): 53.5 nM | TGI (K-562 leukemia): 580 nM | GI50 (TK-10 renal): 1030 nM | TGI (TK-10 renal): 2210 nM | GI50 (A549 NSCLC): 7000 nM | TGI (A549 NSCLC): 19900 nM | GI50 (SK-MEL-2 melanoma): 355 nM | TGI (SK-MEL-2 melanoma): 1480 nM | GI50 (SNB-75 CNS): 705 nM | TGI (SNB-75 CNS): 2100 nM | GI50 (SK-MEL-5 melanoma): 1080 nM | TGI (SK-MEL-5 melanoma): 2270 nM | GI50 (IGROV1 ovarian): 1340 nM | TGI (IGROV1 ovarian): 2790 nM | GI50 (OVCAR-4 ovarian): 1680 nM | TGI (OVCAR-4 ovarian): 3130 nM | GI50 (HOP-18 NSCLC): 1670 nM | TGI (HOP-18 NSCLC): 3050 nM | GI50 (CCRF-CEM leukemia): 36.2 nM | TGI (CCRF-CEM leukemia): 11900 nM | GI50 (SNB-19 CNS): 1360 nM | TGI (SNB-19 CNS): 2650 nM | GI50 (HCT-15 colon): 1040 nM | TGI (HCT-15 colon): 2230 nM | GI50 (KM12 colon): 1710 nM | TGI (KM12 colon): 4030 nM | GI50 (DMS 114 small cell lung): 140 nM | TGI (DMS 114 small cell lung): 393 nM | GI50 (786-0 renal): 505 nM | TGI (786-0 renal): 1720 nM | GI50 (LXFL 529 NSCLC): 47.6 nM | TGI (LXFL 529 NSCLC): 202 nM | GI50 (HCC-2998 colon): 1230 nM | TGI (HCC-2998 colon): 2520 nM | GI50 (XF 498 CNS): 1080 nM | TGI (XF 498 CNS): 2290 nM | GI50 (LOX IMVI melanoma): 279 nM | TGI (LOX IMVI melanoma): 1270 nM | GI50 (HOP-92 NSCLC): 1020 nM | TGI (HOP-92 NSCLC): 2200 nM | GI50 (EKVX NSCLC): 777 nM | TGI (EKVX NSCLC): 2090 nM | GI50 (U251 CNS): 361 nM | TGI (U251 CNS): 1540 nM | GI50 (UACC-257 melanoma): 603 nM | TGI (UACC-257 melanoma): 1990 nM | GI50 (DLD-1 colon): 291 nM | TGI (DLD-1 colon): 1420 nM | GI50 (MALME-3M melanoma): 240 nM | TGI (MALME-3M melanoma): 1350 nM | GI50 (SW-620 colon): 206 nM | TGI (SW-620 colon): 1130 nM | GI50 (HCT-116 colon): 657 nM | TGI (HCT-116 colon): 1970 nM | GI50 (HT29 colon): 1610 nM | TGI (HT29 colon): 3680 nM | GI50 (NCI-H226 lung): 443 nM | TGI (NCI-H226 lung): 1850 nM | GI50 (SN12C renal): 856 nM | TGI (SN12C renal): 2100 nM | GI50 (M14 melanoma): 1060 nM | TGI (M14 melanoma): 2260 nM | GI50 (HOP-62 NSCLC): 2380 nM | TGI (HOP-62 NSCLC): 4080 nM

COc1ccc(-c2cc(=O)c3c(O)c(OC)c(O)c(OC)c3o2)cc1OC
TGI (RXF 393 renal): 55600 nM | TGI (NCI-H23 lung): > 100000 nM | TGI (M19-MEL melanoma): > 100000 nM | TGI (RPMI-8226 leukemia): > 100000 nM | TGI (NCI-H522 lung): 42800 nM | TGI (SNB-78 CNS): > 100000 nM | TGI (SK-OV-3 ovarian): > 100000 nM | TGI (UO-31 renal): > 100000 nM | TGI (SK-MEL-28 melanoma): > 100000 nM | TGI (SF-268 CNS): > 100000 nM | TGI (SF-539 CNS): > 100000 nM | TGI (DMS 273 small cell lung): > 100000 nM | TGI (A498 renal): > 100000 nM | TGI (OVCAR-8 ovarian): > 100000 nM | TGI (SR leukemia): > 100000 nM | TGI (MOLT-4 leukemia): > 100000 nM | TGI (ACHN renal): > 100000 nM | TGI (UACC-62 melanoma): > 100000 nM | TGI (KM20L2 colon): > 100000 nM | TGI (SF-295 CNS): > 100000 nM | TGI (COLO 205 colon): > 100000 nM | TGI (K-562 leukemia): > 100000 nM | TGI (A549 NSCLC): > 100000 nM | TGI (SNB-75 CNS): > 100000 nM | TGI (SK-MEL-5 melanoma): > 100000 nM | TGI (IGROV1 ovarian): > 100000 nM | TGI (OVCAR-4 ovarian): > 100000 nM | TGI (HOP-18 NSCLC): > 100000 nM | TGI (CCRF-CEM leukemia): > 100000 nM | TGI (SNB-19 CNS): > 100000 nM | TGI (HCT-15 colon): > 100000 nM | TGI (DMS 114 small cell lung): > 100000 nM | TGI (786-0 renal): > 100000 nM | TGI (LXFL 529 NSCLC): > 100000 nM | TGI (HCC-2998 colon): > 100000 nM | TGI (XF 498 CNS): > 100000 nM | TGI (HOP-92 NSCLC): > 100000 nM | TGI (EKVX NSCLC): > 100000 nM | TGI (U251 CNS): > 100000 nM | TGI (UACC-257 melanoma): > 100000 nM | TGI (DLD-1 colon): > 100000 nM | TGI (MALME-3M melanoma): > 100000 nM | TGI (SW-620 colon): > 100000 nM | TGI (HCT-116 colon): > 100000 nM | TGI (HT29 colon): > 100000 nM | TGI (NCI-H226 lung): > 100000 nM | TGI (SN12C renal): > 100000 nM | TGI (M14 melanoma): > 100000 nM | TGI (HOP-62 NSCLC): > 100000 nM | TGI (HL-60(TB) leukemia): > 100000 nM

Source: PubChem BioAssay (NCI)
